For data set [1], the system named is P. aeruginosa. The experiment in a line: MIC/MBC assay, twofold serial dilution. The class given is cell-based, Pseudomonas aeruginosa. The method, then:
(§1) The results of this in vitro assay test are consistent with the findings of the antimicrobial sensitivity test. […] It has lower antimicrobial activity than ciprofloxacin against all pathogens tested.
(§2) The MBC differs from the MIC. […]
(§3) 4.2.2. Minimum inhibitory concentration assay
(§4) In 96-well microtiter plates and […] of fresh bacterial culture of a single McFarland unit overnight, a double serial dilution of each compound […] in sterile standard saline were prepared to every single source well. Ciprofloxacin antibiotic (5 mg / mL - 1) and normal saline were included as standard reference in each assay. The plates were incubated at 37 0C overnight. As an indicator of bacterial growth, […] of p-iodonitrotetrazolium violet (INT) was added to each well and incubated at 37 0C for 30 […]
(§5) min. MIC values are recorded as the lowest concentration of the extract that completely inhibited bacterial growth that is clear well. The colorless tetrazolidium salt acts as an electron accepter and is reduced to a red colored formazan product by biological activity organisms. Where bacterial growth was inhibited, the solution in the well remained clear after incubation with INT. […]

In data set [2] the test system is E. coli. The experiment in a line: MIC/MBC assay, twofold serial dilution. The settings on record: Escherichia coli. The data set is classed as cell-based, Escherichia coli. As for the experimental part: as §1, §2, §3, §4, §5
Data set [3] concerns E. coli (ATCC BAA-196). The data set is described as follows: Antibacterial assay against multi-drug resistant strains (MIC/MBC). The class given is cell-based, Escherichia coli. The settings on record: Escherichia coli.
For data set [4], the system named is MDRB (multi-drug resistant bacteria). The experiment in a line: MIC/MBC against the MDRB panel as a whole.
Text: Norfloxacin, a broad-spectrum antibiotic, worked as positive control.
The target of data set [5] is DHFR E. Coli (Escherichia coli, UniProt P0ABQ4). The experiment in a line: DHFR inhibitory assay. The data set is classed as biochemical.
Sequence of DHFR E. Coli (P0ABQ4 whole entry): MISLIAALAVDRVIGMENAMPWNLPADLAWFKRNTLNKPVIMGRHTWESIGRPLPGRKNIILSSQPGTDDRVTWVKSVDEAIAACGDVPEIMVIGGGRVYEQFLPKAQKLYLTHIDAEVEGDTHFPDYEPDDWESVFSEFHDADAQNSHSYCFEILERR
The target in data set [6] is E. coli DNA gyrase (Escherichia coli, UniProt P0AES6). The data set is described as follows: E. coli DNA gyrase supercoiling inhibitory assay. The data set is classed as biochemical. As for the experimental part: The fluorescence was measured with a microplate reader (BioTek Synergy H4,
NaCl and 50 mM MgCl2) was added to terminate the enzymatic reaction. After
Initial screening was done at 100 or 10 μM concentration

Data set [7] has as its system S. aureus (ATCC 43300) (MRSA). The data set is described as follows: Antibacterial assay against multi-drug resistant strains (MIC/MBC). The data set is classed as cell-based, Staphylococcus aureus. The conditions noted are these: Staphylococcus aureus, S. aureus ATCC 43300 (MRSA).
Data set [8] deals with P. aeruginosa (ATCC BAA-2111). Described as above. The data set is classed as cell-based, Pseudomonas aeruginosa. The settings on record: Pseudomonas aeruginosa.
Data set [9] has as its system C. albicans. The data set is described as follows: Antifungal assay (MIC/MFC), twofold serial dilution.
In data set [10] the test system is A. flavus. Described as above. The conditions noted are these: for MIC: A. flavus.
Data set [11] is described as follows: Cell viability assay (MTT). The class given is cell-based. The conditions noted are these: human, MCF-10A, 4-day incubation. As for the experimental part:
The vitality of the investigated compounds was assessed using the MCF-10A cell line, which is a normal human mammary gland epithelial cell line. Following a 4-day incubation period on MCF-10A cells with a concentration of 50 µM for each compound being studied, the viability of the cells was assessed using the MTT test ([Hisham et al., 2022]; [Mahmoud et al., 2022]).
4.2.3. Cell Viability assay
MTT assay was carried out to study the effect of compounds on mammary epithelial cells (MCF-10A). The medium in which cells were propagated contained Dulbecco's modified Eagle's medium (DMEM)/ Ham's F-12 medium (1:1) supplemented with epidermal growth factor (20 ng/mL), hydrocortisone (500 ng/mL), insulin (10 μg/mL), 2 mM glutamine and 10% fetal calf serum. After every 2-3 days, the cells were passaged using trypsin ethylenediamine tetra acetic acid (EDTA). The cells were seeded at a density of 10^4 cells mL-1 in flat-bottomed culture plates containing 96 wells each. After 24 h, medium was removed from the plates and the compounds in (in 0.1% DMSO) were added (in 200 μL medium to yield a final concentration of 0.1% v/v) to the wells of plates. A single compound was designated with four wells followed by incubation of plates for 96h at 37°C. After incubation, medium was removed completely from the plates followed by addition of MTT (0.4 mg/mL in medium) to each well and subsequent incubation of plates for 3h. MTT (along with the medium) was removed and DMSO (150μL) was added to each well of the culture plates, followed by vortexing and subsequent measurement of absorbance (at 540 nm) using microplate reader. The data are shown as percentage inhibition of proliferation in comparison with controls

Data set [12] concerns S. aureus. The experiment in a line: MIC/MBC assay, twofold serial dilution. The data set is classed as cell-based, Staphylococcus aureus. As for the experimental part: as §1, §2, §3, §4, §5
Data set [13] has as its system B. subtilis. The data set is described as follows: MIC/MBC assay, twofold serial dilution. The data set is classed as cell-based, Bacillus subtilis. The method, then: as §1, §2, §3, §4, §5
Data set [14] concerns Gram-positive bacteria. The data set is described as follows: MBC assay, Gram-positive bacteria together. The data set is classed as cell-based. The conditions noted are these: Gram-positive bacteria (B. subtilis, S. aureus). The text has this: The MBC differs from the MIC.
Data set [15] addresses S. aureus DNA gyrase. The arrangement: method as in Alzahrani et al., 2022. The settings on record: ref Alzahrani et al., 2022; read-out: S. aureus DNA gyrase inhibitor IC50; cited from earlier work.
Data set [16] addresses S. aureus topoisomerase IV. The settings on record: internal standard value stated in the supplementary method; cited from earlier work.

Structures are written as SMILES. Converted amounts (≈) assume the structure as drawn. “And” between values parts separate entries of the source, which are not always exact repeats. Equal values may be shown once. Read-outs that look alike come from different tables or passages of the source.

As to `O=C1Nc2ccc([N+](=O)[O-])cc2/C1=N/NC(=O)c1cc(Cc2ccc(O)c(C(=O)N/N=C3\C(=O)Nc4ccc([N+](=O)[O-])cc43)c2)ccc1O` [Compound 6l], the minimal bactericidal concentration (MBC) was 0.078 ± 0.006 µM (≈ 0.0518 µg/mL) in [1]; 0.078 µM (≈ 0.0518 µg/mL) in data set [1] (Pseudomonas aeruginosa, read-out: MBC); 0.077 ± 0.006 µM (≈ 0.0512 µg/mL) in data set [2] (read-out: MBC); 4.8 ± 0.2 µM (≈ 3.19 µg/mL) in data set [3] (ATCCBAA196); 4.5 to 6.5 µM (≈ 2.99 to 4.32 µg/mL) in data set [4] (read-out: MBC values); 4.5 ± 0.2 µM (≈ 2.99 µg/mL) in data set [7] (read-out: MBC). In addition, the MBC in data set [8] (ATCCBAA2111) was 6.5 ± 0.25 µM (≈ 4.32 µg/mL); in data set [12] it was 0.033 ± 0.002 µM (≈ 0.0219 µg/mL); in [12] (Staphylococcus aureus, read-out: MBC), 0.033 µM (≈ 0.0219 µg/mL); in [13] it was 0.043 ± 0.003 µM (≈ 0.0286 µg/mL); in data set [13] (Bacillus subtilis, read-out: MBC), 0.043 µM (≈ 0.0286 µg/mL); in data set [14] it was 0.028 to 0.058 µM (≈ 0.0186 to 0.0385 µg/mL). For the same molecule, the minimum inhibitory concentration (MIC) in data set [1] (Pseudomonas aeruginosa, read-out: MIC) was 0.057 ± 0.004 µM (≈ 0.0379 µg/mL); in [2] (read-out: MIC), 0.057 ± 0.004 µM (≈ 0.0379 µg/mL); in data set [3] (ATCCBAA196, read-out: MIC), 2.7 ± 0.1 µM (≈ 1.79 µg/mL); in [4] (read-out: MIC values), 2.2 to 4.5 µM (≈ 1.46 to 2.99 µg/mL); in data set [7] (read-out: MIC) it was 2.2 ± 0.1 µM (≈ 1.46 µg/mL); in [8] (ATCCBAA2111, read-out: MIC), 4.5 ± 0.2 µM (≈ 2.99 µg/mL). Further, the MIC was 19.50 ± 1 µM (≈ 13 µg/mL) in data set [9] (C. albicans); 19.5 µM (≈ 13 µg/mL) in data set [9] (Candida albicans); 15.60 µM and 15.60 ± 1 µM in data set [10]; 14.5 to 19.5 µM (≈ 9.64 to 13 µg/mL) in [10] (Aspergillus flavus); 0.021 ± 0.002 µM (≈ 0.014 µg/mL) in data set [12]; 0.021 µM (≈ 0.014 µg/mL) in data set [12] (Staphylococcus aureus, read-out: MIC). For the same molecule, the MIC in [13] (Bacillus subtilis, read-out: MIC) was determined as 0.026 ± 0.002 µM (≈ 0.0173 µg/mL). Further, the IC50 in data set [5] was determined as 4.25 ± 0.1 µM; in [6], 0.087 ± 0.006 µM. Further, the “Potency relative to novobiocin against DNA gyrase” value in data set [6] is recorded as “twice as potent as novobiocin”. The MFC came to 39.2 ± 3 µM (≈ 26.1 µg/mL) in data set [9] (Candida albicans) and 31.1 ± 2 µM (≈ 20.7 µg/mL) in data set [10] (Aspergillus flavus). The molecule further yielded a viability at 96 h, 50 µM in data set [11] of 89%. For the same molecule, the “Times more effective than ciprofloxacin (MIC)” value in [12] turned out to be 1.5 times. Also, the “Times less effective than ciprofloxacin (MIC)” value in [13] worked out at 2.5 times.

As to `O=C1Nc2ccc(S(=O)(=O)N3CCOCC3)cc2/C1=N/NC(=O)C12CC3CC(CC(C3)C1)C2` [II], the half-maximal inhibitory concentration (IC50) in data set [15] is 19.3 µM.

Regarding `CCN(CC)S(=O)(=O)c1ccc2c(c1)C1(C(=O)N2)C(C#N)=COC(c2ccccc2)=C1C(C)=O` (stereo not drawn) [I], the IC50 in [15] was 18.1 µM.

For `CO[C@@H]1[C@@H](OC(N)=O)[C@@H](O)[C@H](Oc2ccc3c(O)c(NC(=O)c4ccc(O)c(CC=C(C)C)c4)c(=O)oc3c2C)OC1(C)C` [Novobiocin], in data set [16], the half-inhibitory concentration (IC50) is 26.7 µM.

The values are drawn from publication PMC11590026, “Synthesis, enzyme inhibition, and docking studies of new schiff bases of disalicylic acid methylene-based derivatives as dual-target antibacterial agents” (Frontiers in Chemistry, 2024).
